Like-named read-outs stand apart in the source and are kept apart here.
Test system: HSV-1
Assay: Plaque reduction assay, HSV-1 clinical isolates on Vero cells
Type: cell-based
Settings: Human alphaherpesvirus 1, Vero
Procedure, shortened: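 Susceptibility of HSV-1 isolates was read as percent plaque reduction versus no-drug control, counted on fixed, crystal-violet-stained sub-confluent Vero cells infected at 75 PFU/well beneath CMC. Intermediate resistance lies between cut-offs ACV <3/>40 μM, PCV <10/>40 μM, CDV <24/>30 μM, FOS <250/>400 μM.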

**Q.** Which results are given for `Nc1nc2c(ncn2CCC(CO)CO)c(=O)[nH]1` [Penciclovir, penciclovir]?
**A.** IC50 (isolate HPG033, HSV-1 TK I358L (1072A>C), also TK T287M, read-out: Drug susceptibility (IC50 value)): > 160 µM; IC50 (isolate HPG033, HSV-1 TK I358L (1072A>C), also TK T287M, read-out: Drug susceptibility Penciclovir (PCV)): > 40 µM; IC50 (isolate HPG033, HSV-1 pol N1046T (3137A>C), also TK T287M, pol A1169T, read-out: Drug susceptibility (IC50 value)): > 160 µM; IC50 (isolate HPG033, HSV-1 pol N1046T (3137A>C), also TK T287M, pol A1169T, read-out: Drug susceptibility Penciclovir (PCV)): > 40 µM; IC50 (isolate HPG035, HSV-1 pol S239L (716C>T), also pol S724N, read-out: Drug susceptibility (IC50 value)): 14.6 µM; IC50 (isolate HPG035, HSV-1 pol S239L (716C>T), also pol S724N, read-out: Drug susceptibility Penciclovir (PCV)): 10 to 40 µM; IC50 (isolate HPG037, HSV-1 TK L69M (205>A), also TK Y239H, read-out: Drug susceptibility Penciclovir (PCV)): > 40 µM; IC50 (isolate HPG037, HSV-1 TK R256W (766C>T), read-out: Drug susceptibility (IC50 value)): > 160 µM; IC50 (isolate HPG037, HSV-1 TK R256W (766C>T), read-out: Drug susceptibility Penciclovir (PCV)): > 40 µM; IC50 (isolate HPG037, HSV-1 TK Y239H (715T>C), read-out: Drug susceptibility (IC50 value)): > 160 µM; IC50 (isolate HPG037, HSV-1 TK Y239H (715T>C), read-out: Drug susceptibility Penciclovir (PCV)): > 40 µM; IC50 (isolate HPG039, HSV-1 TK 85* or H58fs (169delC, 170delC, 171delC, or 172delC), read-out: Drug susceptibility (IC50 value)): 158 µM; IC50 (isolate HPG039, HSV-1 TK 85* or H58fs (169delC, 170delC, 171delC, or 172delC), read-out: Drug susceptibility Penciclovir (PCV)): > 40 µM; IC50 (isolate HPG040, HSV-1 pol S911N (2732G>A), also TK deletion (C) nt 896-900, pol A1169T, read-out: Drug susceptibility (IC50 value)): > 160 µM; IC50 (isolate HPG040, HSV-1 pol S911N (2732G>A), also TK deletion (C) nt 896-900, pol A1169T, read-out: Drug susceptibility Penciclovir (PCV)): > 40 µM; IC50 (isolate HPG041, HSV-1 pol S911N (2732G>A), also pol A1169T, read-out: Drug susceptibility (IC50 value)): 3 µM; IC50 (isolate HPG041, HSV-1 pol S911N (2732G>A), also pol A1169T, read-out: Drug susceptibility Penciclovir (PCV)): < 10 µM; IC50 (isolate HPG042, HSV-1 pol A972V (2915C>T), also TK deletion (C) nt 881-885, pol A1169T, read-out: Drug susceptibility (IC50 value)): > 160 µM; IC50 (isolate HPG042, HSV-1 pol A972V (2915C>T), also TK deletion (C) nt 881-885, pol A1169T, read-out: Drug susceptibility Penciclovir (PCV)): > 40 µM; IC50 (isolate HPG042, HSV-1 pol G22R (64G>A), also TK deletion (C) nt 881-885, pol A1169T, read-out: Drug susceptibility (IC50 value)): > 160 µM; IC50 (isolate HPG042, HSV-1 pol G22R (64G>A), also TK deletion (C) nt 881-885, pol A1169T, read-out: Drug susceptibility Penciclovir (PCV)): > 40 µM; IC50 (isolate HPG043, HSV-1 TK 183* (437_438insA), read-out: Drug susceptibility (IC50 value)): > 160 µM; IC50 (isolate HPG043, HSV-1 TK 183* (437_438insA), read-out: Drug susceptibility Penciclovir (PCV)): > 40 µM; IC50 (isolate HPG045, HSV-1 TK L49R (146T>G), read-out: Drug susceptibility (IC50 value)): > 160 µM; IC50 (isolate HPG045, HSV-1 TK L49R (146T>G), read-out: Drug susceptibility Penciclovir (PCV)): > 40 µM; IC50 (isolate HPG045, HSV-1 pol L419I (1255C>A), also TK L49R, pol A1169T, read-out: Drug susceptibility (IC50 value)): > 160 µM; IC50 (isolate HPG045, HSV-1 pol L419I (1255C>A), also TK L49R, pol A1169T, read-out: Drug susceptibility Penciclovir (PCV)): > 40 µM; IC50 (isolate HPG046, HSV-1 TK I166N (497T>A), read-out: Drug susceptibility (IC50 value)): 98.5 µM; IC50 (isolate HPG046, HSV-1 TK I166N (497T>A), read-out: Drug susceptibility Penciclovir (PCV)): > 40 µM; IC50 (isolate HPG047, HSV-1 pol E680 (2039A>C), also TK deletion (C) nt 548-553, pol A1169T, read-out: Drug susceptibility Penciclovir (PCV)): > 40 µM; IC50 (isolate HPG050, HSV-1 TK Q34* (100C>T), read-out: Drug susceptibility (IC50 value)): > 160 µM; IC50 (isolate HPG050, HSV-1 TK Q34* (100C>T), read-out: Drug susceptibility Penciclovir (PCV)): > 40 µM; IC50 (isolate HPG051, HSV-1 pol D83A (248A>C), also TK R176stop, read-out: Drug susceptibility (IC50 value)): > 160 µM; IC50 (isolate HPG051, HSV-1 pol D83A (248A>C), also TK R176stop, read-out: Drug susceptibility Penciclovir (PCV)): > 40 µM; IC50 (isolate HPG052, HSV-1 TK Q34* (100C>T), read-out: Drug susceptibility (IC50 value)): 25 µM; IC50 (isolate HPG052, HSV-1 TK Q34* (100C>T), read-out: Drug susceptibility Penciclovir (PCV)): 10 to 40 µM; IC50 (isolate HPG053, HSV-1 pol L802R + A834S (2405T>G, 2500G>T), also TK R176W, read-out: Drug susceptibility Penciclovir (PCV)): > 40 µM; IC50 (isolate HPG053, HSV-1 pol S911N (2732G>A), also TK R176W, pol A1169T, read-out: Drug susceptibility (IC50 value)): > 160 µM; IC50 (isolate HPG053, HSV-1 pol S911N (2732G>A), also TK R176W, pol A1169T, read-out: Drug susceptibility Penciclovir (PCV)): > 40 µM; IC50 (isolate HPG054, HSV-1 pol E992K (2974G>A), also TK insert (G) nt 430-436, pol A1169T, read-out: Drug susceptibility (IC50 value)): > 160 µM; IC50 (isolate HPG054, HSV-1 pol E992K (2974G>A), also TK insert (G) nt 430-436, pol A1169T, read-out: Drug susceptibility Penciclovir (PCV)): > 40 µM; IC50 (isolate HPG055, HSV-1 TK V204G (611T>G), also pol A1169AT, read-out: Drug susceptibility (IC50 value)): 9.34 µM; IC50 (isolate HPG055, HSV-1 TK V204G (611T>G), also pol A1169AT, read-out: Drug susceptibility Penciclovir (PCV)): < 10 µM; IC50 (read-out: Drug susceptibility (IC50 value), isolate HPG005, HSV-1 TK A192T (574G>A)): 5.19 µM; IC50 (read-out: Drug susceptibility (IC50 value), isolate HPG006, HSV-1 pol G121S (361G>A), also a TK resistance mutation (footnote a)): > 160 µM; IC50 (read-out: Drug susceptibility (IC50 value), isolate HPG012, HSV-1 pol G985E (2954G>A), also TK A93V): 9.67 µM; IC50 (read-out: Drug susceptibility (IC50 value), isolate HPG016, HSV-1 pol A1169T (3505G>A)): 7.19 µM; IC50 (read-out: Drug susceptibility (IC50 value), isolate HPG037, HSV-1 TK L69M (205>A), also TK Y239H): > 160 µM; IC50 (read-out: Drug susceptibility (IC50 value), isolate HPG042, HSV-1 TK frameshift (881delC to 885delC)): > 160 µM; IC50 (read-out: Drug susceptibility (IC50 value), isolate HPG047, HSV-1 pol E680 (2039A>C), also TK deletion (C) nt 548-553, pol A1169T): > 160 µM; IC50 (read-out: Drug susceptibility Penciclovir (PCV), isolate HPG005, HSV-1 TK A192T (574G>A)): < 10 µM; IC50 (read-out: Drug susceptibility Penciclovir (PCV), isolate HPG006, HSV-1 pol G121S (361G>A), also a TK resistance mutation (footnote a)): > 40 µM; IC50 (read-out: Drug susceptibility Penciclovir (PCV), isolate HPG012, HSV-1 pol G985E (2954G>A), also TK A93V): 10 to 40 µM; IC50 (read-out: Drug susceptibility Penciclovir (PCV), isolate HPG016, HSV-1 pol A1169T (3505G>A)): < 10 µM; IC50 (read-out: Drug susceptibility Penciclovir (PCV), isolate HPG042, HSV-1 TK frameshift (881delC to 885delC)): > 40 µM

— patent publication US12281363B2, “Methods for detecting antiviral-drug resistant virus” (Secretary of State for Health and Social Care, priority 2018, dated 2025)
